Measurements reported in patent US20120309734A1, “COMBRETASTATIN DERIVATIVES AND USES THEREFOR” (priority 2009, published 2012).
Read-outs that look alike come from different tables or passages of the source.

What was measured:
[1] = test system: normal mouse mammary epithelial cells; experiment: Viability of normal mammary epithelial cells; format: cell-based; settings: 72 hr treatment
[2] = test system: normal mouse mammary epithelial cells; experiment: Viability of normal mammary epithelial cells; format: cell-based
Protocol: The maximum toxicity elicited by these drugs on normal cells at a concentration of 10 nM was only 8% (see Table 4).

[3] = biological target: T1, purified human liver cathepsin-L (Homo sapiens, UniProt P07711); experiment: Fluorogenic cathepsin-L activity kit; format: biochemical; settings: FIG. 2
T1 construct: uses purified human liver cathepsin-L as the source of the cathepsin; purchased calbiochem; host or cells: human liver
Protocol: Cathepsin L activity was measured using the fluorogenic cathepsin-L activity kit from calbiochem which uses purified human liver cathepsin-L as the source of the cathepsin. […] Values represent the mean+/−range of two separate experiments each carried out in duplicate.

[4] = test system: human chronic myeloid leukaemia K562 cells; experiment: MTT cell viability assay; format: cell-based; settings: read-out: Inhibition of cell viability (IC50 value, nM) K562
[5] = test system: human promyelocytic leukaemia HL-60 cells; experiment: MTT cell viability assay; format: cell-based; settings: read-out: Inhibition of cell viability (IC50 value, nM) HL-60
[6] = test system: MCF-7 breast cancer cell line; experiment: Antiproliferation study, MTT cell viability assay; format: cell-based; settings: Homo sapiens
Protocol: All assays were performed in triplicate for the determination of mean values reported. Compounds were assayed as the free bases isolated from reaction. The human breast tumour cell line MCF-7 was cultured in Eagles minimum essential medium in a […] atmosphere with 10% fetal bovine serum, 2 mM L-glutamine and 100 μg/mL penicillin/streptomycin. The medium was supplemented with 1% non-essential amino acids. MDA-MB-231 cells were maintained in Dulbecco's Modified Eagle's medium (DMEM), supplemented with 10% (v/v) Fetal bovine serum, 2 mM L-glutamine and 100 μg/mL penicillin/streptomycin (complete medium). Cells were trypsinised and seeded at a density of 2.5×10^4 cells/ml in a 96-well plate and incubated at 37° C., […] atmosphere for 24 h. […] Control wells contained the equivalent volume of the vehicle ethanol (1% v/v). The culture medium was then removed and the cells washed with 100 μL phosphate buffered saline (PBS) and 50 μL MTT added, to reach a final concentration of 1 mg/mL MTT added. Cells were incubated for 2 h in darkness at 37° C. At this point solubilization was begun through the addition of 200 μL DMSO and the cells maintained at room temperature in darkness for 20 min to ensure thorough colour diffusion before reading the absorbance. The absorbance value of control cells (no added compound) was set to 100% cell viability and from this graphs of absorbance versus cell density per well were prepared to assess cell viability and from these, graphs of percentage cell viability versus concentration of subject compound added were drawn.

[7] = test system: purified bovine brain tubulin; experiment: Tubulin polymerization assay (turbidity); format: biochemical
Protocol: The effect of compounds on the assembly of purified bovine brain tubulin was determined spectrophotometrically by monitoring the change in turbidity. This assay used a 96-well plate format with 300 μg of >99% purified bovine brain tubulin in each well. […] 10 μl of 10× strength of each compound tested was pipetted into a half area 96-well plate prewarmed to 37° C. A 100 μl volume of tubulin was then pipetted into the prewarmed plate. Samples were mixed well and tubulin assembly was monitored at an A340 nm at 30 second intervals for 60 minutes at 37° C. in a Spectromax 340PC spectrophotometer (Molecular Devices).

[8] = test system: MDA-MB-231 cells; experiment: Antiproliferation study, MTT cell viability assay; format: cell-based; settings: Homo sapiens, read-out: antiproliferative effects, MDA-MB-231
Protocol: All assays were performed in triplicate for the determination of mean values reported. Compounds were assayed as the free bases isolated from reaction. The human breast tumour cell line MCF-7 was cultured in Eagles minimum essential medium in a […] atmosphere with 10% fetal bovine serum, 2 mM L-glutamine and 100 μg/mL penicillin/streptomycin. The medium was supplemented with 1% non-essential amino acids. MDA-MB-231 cells were maintained in Dulbecco's Modified Eagle's medium (DMEM), supplemented with 10% (v/v) Fetal bovine serum, 2 mM L-glutamine and 100 μg/mL penicillin/streptomycin (complete medium). […] At this point solubilization was begun through the addition of 200 μL DMSO and the cells maintained at room temperature in darkness for 20 min to ensure thorough colour diffusion before reading the absorbance. The absorbance value of control cells (no added compound) was set to 100% cell viability and from this graphs of absorbance versus cell density per well were prepared to assess cell viability and from these, graphs of percentage cell viability versus concentration of subject compound added were drawn.
(§1) MDA-MB-231 cells were treated with vehicle (1% (v/v) ethanol) or 10 nM, 100 nM, 1 μM and 10 μM (final concentrations) of 25. Cells were harvested after 24, 48 or 72 hours and analysed for DNA content by flow cytometry.

[9] = test system: MDA-MB-231 cells; experiment: Cell cycle analysis by flow cytometry (PI); format: cell-based, human
Protocol: The MDA-MB-231 cells were seeded at a density of 18×10^4 cells/mL in 5 mL of medium (900,000 cells per flask). After 24 hours the control was treated with 50 μL of ethanol (1% v/v) and selected compound dosed at range 10 nM-10 μM (final concentration, 1% v/v). They were incubated for 72 hours. Following incubation, the cells were removed from the bottom of the flask by scraping and the medium placed in a 20 mL sterilin. They were centrifuged for 10 minutes at 600×g. The supernatant was decanted and the pellet resuspended in 1 mL of ice-cold PBS; cells were again centrifuged for 10 minutes at 600×g. The supernatant was decanted and the pellet resuspended in 200 μL of ice-cold phosphate buffer saline (PBS). Subsequently ice-cold 70% ethanol (2 mL) was slowly added to the tube as it was gently vortexed. The cells were kept at −20° C. for at least one hour. After the fixation 5 μL of FBS was added to the samples. The cells were harvested by centrifugation at 600×g for 10 mins. The ethanol was carefully removed and the pellet resuspended in 400 μL of PBS and transferred to FACS microtubes. A 25 μL aliquot of RNase A (1 mg/mL) and 75 μL of propidium iodide (PI) 1 mg/mL, a DNA binding fluorescent dye, was added to each tube. The samples were wrapped in aluminium foil and incubated for a minimum of 30 min at 37° C. The samples were read at 488 nm using FACscalibur flow cytometer from Becton Dickinson. The FACS data for 10,000 cells was analysed using the Macintosh-based application Cellquest and the data was stored as frequency histograms.
as §1

[10] = MCF7, 72 h, antiproliferative activity, MTT, 72 h, read-out: IC50 (μM) MCF-7 cell line

T1 sequence (P07711 114-333): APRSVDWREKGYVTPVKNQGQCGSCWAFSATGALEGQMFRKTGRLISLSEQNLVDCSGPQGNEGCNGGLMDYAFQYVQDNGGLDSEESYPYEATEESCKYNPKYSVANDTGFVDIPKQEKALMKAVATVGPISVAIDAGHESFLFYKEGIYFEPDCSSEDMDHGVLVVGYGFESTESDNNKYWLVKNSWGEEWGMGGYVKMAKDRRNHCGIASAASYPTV

COc1ccc(C2C(c3ccc(O)cc3)C(=O)N2c2cc(OC)c(OC)c(OC)c2)cc1O (stereo not drawn) [Compound 14, 4-(3-Hydroxy-4-methoxy-phenyl)-3-(4-hydroxy-phenyl)-1-(3,4,5-trimethoxy-phenyl)-azetidin-2-one]
Percent viability of normal mammary epithelial cells compared to control ([1]; 1 nM): 93.8%
Percent viability of normal mammary epithelial cells compared to control ([1]; 100 nM): 73.2%
Percent viability of normal mammary epithelial cells compared to control ([1]; 1 μM): 75.2%
Percent viability of normal mammary epithelial cells compared to control ([1]; 10 μM): 74.8%
melting point: 152 °C
Percent viability of normal mammary epithelial cells compared to control ([2]; 10 nM, 72 hr treatment): 90%
effects on normal mammary epithelial cells ([2]; up to 10 μM): minimal effects
inhibition of cathepsin-L activity [3]: inhibited cathepsin-L in the nanomolar range
IC50 [4]: 0.9 nM
IC50 [5]: 0.4 nM
IC50 [6, 10]: 0.0008 µM
IC50 ([6]; MCF7, MTT cell viability assay, read-out: Inhibition of cell viability (IC50 value, nM) MCF-7): 0.0008 to 0.0031 µM

COc1ccc(C2CC(=O)N2c2cc(OC)c(OC)c(OC)c2)cc1O (stereo not drawn) [Compound 25]
X-fold inhibition of tubulin polymerisation (Vmax ± SEM) ([7]; 1 μM): 1.1 ± 0.2 fold
X-fold inhibition of tubulin polymerisation (Vmax ± SEM) ([7]; 10 μM): 10.2 ± 2.3 fold
IC50 [8]: 54 nM
IC50 [6, 10]: 0.017 µM
IC50 ([6]; MCF7, read-out: antiproliferative effects, MCF-7): 0.017 µM
G1 (%) ([9]; 10 nM, 24 hours): 48.33 ± 4.18%
G2/M (%) ([9]; 10 nM, 24 hours): 25.61 ± 0.98%
M5 (%) ([9]; 10 nM, 24 hours): 2.84 ± 0.59%
S (%) ([9]; 10 nM, 24 hours): 12.55 ± 2.54%
Sub-G1 (%) ([9]; 10 nM, 24 hours): 3.72 ± 1.97%
G1 (%) ([9]; 10 nM, 48 hours): 45.25 ± 7.37%
G2/M (%) ([9]; 10 nM, 48 hours): 23.71 ± 7.81%
M5 (%) ([9]; 10 nM, 48 hours): 6.10 ± 0.62%
S (%) ([9]; 10 nM, 48 hours): 13.36 ± 2.58%
Sub-G1 (%) ([9]; 10 nM, 48 hours): 11.57 ± 3.06%
G1 (%) ([9]; 10 nM, 72 hours): 48.24 ± 2.79%
G2/M (%) ([9]; 10 nM, 72 hours): 17.68 ± 4.58%
M5 (%) ([9]; 10 nM, 72 hours): 3.55 ± 1.57%
S (%) ([9]; 10 nM, 72 hours): 9.08 ± 2.32%
Sub-G1 (%) ([9]; 10 nM, 72 hours): 15.25 ± 2.03%
G1 (%) ([9]; 100 nM, 24 hours): 18.95 ± 6.60%
G2/M (%) ([9]; 100 nM, 24 hours): 59.43 ± 3.13%
M5 (%) ([9]; 100 nM, 24 hours): 4.87 ± 4.39%
S (%) ([9]; 100 nM, 24 hours): 6.05 ± 0.38%
Sub-G1 (%) ([9]; 100 nM, 24 hours): 4.88 ± 0.85%
G1 (%) ([9]; 100 nM, 48 hours): 10.76 ± 0.34%
G2/M (%) ([9]; 100 nM, 48 hours): 36.42 ± 3.42%
M5 (%) ([9]; 100 nM, 48 hours): 4.61 ± 0.86%
S (%) ([9]; 100 nM, 48 hours): 8.90 ± 0.85%
Sub-G1 (%) ([9]; 100 nM, 48 hours): 37.50 ± 0.71%
G1 (%) ([9]; 100 nM, 72 hours): 13.90 ± 3.62%
G2/M (%) ([9]; 100 nM, 72 hours): 12.62 ± 9.22%
M5 (%) ([9]; 100 nM, 72 hours): 2.99 ± 1.89%
S (%) ([9]; 100 nM, 72 hours): 5.34 ± 4.32%
Sub-G1 (%) ([9]; 100 nM, 72 hours): 63.10 ± 20.06%
G1 (%) ([9]; 1 μM, 24 hours): 19.22 ± 6.19%
G2/M (%) ([9]; 1 μM, 24 hours): 63.16 ± 4.86%
M5 (%) ([9]; 1 μM, 24 hours): 4.31 ± 3.17%
S (%) ([9]; 1 μM, 24 hours): 6.01 ± 2.90%
Sub-G1 (%) ([9]; 1 μM, 24 hours): 7.08 ± 4.20%
G1 (%) ([9]; 1 μM, 72 hours): 14.29 ± 2.20%
G2/M (%) ([9]; 1 μM, 72 hours): 21.24 ± 12.05%
M5 (%) ([9]; 1 μM, 72 hours): 5.97 ± 4.71%
S (%) ([9]; 1 μM, 72 hours): 7.76 ± 0.58%
Sub-G1 (%) ([9]; 1 μM, 72 hours): 50.53 ± 14.78%
G1 (%) ([9]; 10 μM, 24 hours): 29.30 ± 5.95%
G2/M (%) ([9]; 10 μM, 24 hours): 55.36 ± 1.49%
M5 (%) ([9]; 10 μM, 24 hours): 3.85 ± 3.83%
S (%) ([9]; 10 μM, 24 hours): 3.72 ± 0.71%
Sub-G1 (%) ([9]; 10 μM, 24 hours): 3.18 ± 0.25%
G1 (%) ([9]; 10 μM, 48 hours): 14.44 ± 2.28%
G2/M (%) ([9]; 10 μM, 48 hours): 27.25 ± 4.45%
M5 (%) ([9]; 10 μM, 48 hours): 2.28 ± 0.06%
S (%) ([9]; 10 μM, 48 hours): 4.47 ± 0.06%
Sub-G1 (%) ([9]; 10 μM, 48 hours): 51.27 ± 6.31%
G1 (%) ([9]; 10 μM, 72 hours): 17.14 ± 3.31%
G2/M (%) ([9]; 10 μM, 72 hours): 21.81 ± 12.40%
M5 (%) ([9]; 10 μM, 72 hours): 3.38 ± 2.84%
S (%) ([9]; 10 μM, 72 hours): 9.66 ± 1.84%
Sub-G1 (%) ([9]; 10 μM, 72 hours): 46.49 ± 17.49%
